These results are taken from US20050043341A1, “3-'Hydroxy-(-4-trifluoromethylphenyl)-methyl-7-spirocyclobutyl-5,6,7 8-tetrahydroquinolin-5-ol derivatives and the use of the same as cholesterol ester transfer protein (cetp) inhibitors” (priority 2001, published 2005).

Read-outs that look alike come from different tables or passages of the source.

In assay [1] the target is T1, CETP activity in the serum (Homo sapiens, UniProt P11597).
T1 construct: determination of its basal CETP activity in the serum; from tissue; host or cells: serum of transgenic hCETP mice
T1 sequence (P11597 18-493): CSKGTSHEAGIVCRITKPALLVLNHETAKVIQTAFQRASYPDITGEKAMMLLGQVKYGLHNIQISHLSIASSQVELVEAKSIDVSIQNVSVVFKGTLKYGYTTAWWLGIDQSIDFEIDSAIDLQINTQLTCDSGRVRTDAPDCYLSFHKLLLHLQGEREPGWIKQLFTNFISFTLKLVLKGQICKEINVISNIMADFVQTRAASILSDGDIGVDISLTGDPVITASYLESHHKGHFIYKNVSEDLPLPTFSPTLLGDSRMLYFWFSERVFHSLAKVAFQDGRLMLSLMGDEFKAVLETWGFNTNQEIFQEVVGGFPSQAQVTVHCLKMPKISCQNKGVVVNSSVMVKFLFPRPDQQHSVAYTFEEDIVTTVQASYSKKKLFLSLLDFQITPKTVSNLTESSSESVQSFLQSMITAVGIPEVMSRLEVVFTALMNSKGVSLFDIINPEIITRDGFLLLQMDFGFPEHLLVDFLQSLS
Briefly: Ex vivo activities on transgenic hCETP mice (serum CETP activity after oral administration). The following applies: mouse, cholesteryl ester transport in serum. Here is the method:
To test for CETP-inhibitory activity, the substances are administered orally using a stomach tube to transgenic hCETP mice of our own breeding (Dinchuk et al. BBA (1995) 1295-301). To this end, male mice are randomly assigned to groups having an equal number of animals, as a rule n=3, one day before the start of the experiment. Before administration of the substance, blood is taken from each mouse by puncture of the retroorbital venous plexus for the determination of its basal CETP activity in the serum (T1). The test substance is then administered to the animals using the stomach tube. At specific times after administration of the test substance, blood is taken from the animals by puncture a second time (T2), as a rule 1, or 3 and 6 h after substance administration, but if appropriate this can also be carried out at another time.
In order to be able to assess the inhibitory activity of a substance, for each time, i.e. 1 or 3 or 6 h, a corresponding control group is employed whose animals only receive the formulating agent without substance. In the control animals, the second blood sampling per animal is carried out as in the substance-treated animals in order to be able to determine the change in the CETP activity without inhibitor over the corresponding experimental time interval (1, 3 or 6 h).
After termination of the clotting, the blood samples are centrifuged and the serum is removed by pipette.
For the determination of the CETP activity, the cholesteryl ester transport over 4 h is determined. To this end, as a rule 2 μl of serum are employed in the test batch and the test is carried out as described under “CETP fluorescence test”.
The differences in the cholesteryl ester transport (pM CE*/h (T2)−pM CE*/h (T1)) are calculated for each animal and averaged in the groups. A substance which at one of the times reduces the cholesteryl ester transport by >30% is regarded as active.

In the next assay the test system is transgenic hCETP mice. Briefly: In vivo activity in transgenic hCETP mice (HDL). The following applies: stomach tube. As for the experimental part: In experiments for the determination of the oral action on lipoproteins and triglycerides, test substance is administered to transgenic mice using a stomach tube (Dinchuck, Hart, Gonzalez, Karmann, Schmidt, Wirak; BBA (1995), 1295, 301). Before the start of the experiment, blood is taken from the mice retroorbitally in order to determine cholesterol and triglycerides in the serum. The serum is obtained as described above for hamsters by incubation at 4° C. overnight and subsequent centrifugation at 6000×g. […] The change in the parameters measured is expressed as the percentage change compared with the starting value.

For another assay, the system named is Syrian golden hamsters. Briefly: In vivo activity in Syrian golden hamsters (HDL cholesterol). As to conditions: perorally. As for the experimental part:
In experiments for the determination of the oral action on lipoproteins and triglycerides, test substance dissolved in DMSO and 0.5% suspended in Tylose are administered perorally by means of a stomach tube to Syrian golden hamsters bred in-house. For the determination of the CETP activity, before the start of the experiment blood is taken by retro-orbital puncture (about 250 μl). The test substances are then administered perorally by means of a stomach tube. The control animals receive identical volumes of solvent without test substance. The feed is then withdrawn from the animals and blood is taken at various times—up to 24 hours after substance administration—by puncture of the retroorbital venous plexus.
Clotting is terminated by incubation at 4° C. overnight, then centrifugation is carried out for 10 minutes at 6000×g. The content of cholesterol and triglycerides in the serum thus obtained is determined with the aid of modified commercially obtainable enzymatic tests (Ecoline 25 Cholesterol 1.14830.0001 Merck Diagnostica, Ecoline 25 Triglycerides 1.14856.0001 Merck Diagnostica). Serum is suitably diluted using physiological saline solution.
10 μl of serum dilution are treated with 200 μl of Ecoline 25 reagent in 96-hole plates and incubated for 10 minutes at room temperature. The optical density is then determined at a wavelength of 490 nm using an automatic plate reader. The triglyceride or cholesterol concentration contained in the samples is determined with the aid of a standard curve measured in parallel.
The determination of the content of HDL cholesterol is carried out after precipitation of the ApoB-containing lipoproteins (Sigma 352-4 HDL cholesterol reagent) according to the manufacturer's instructions.

The mark [2] stands for this setting: 1 h after administration, read-out: % inhibition at 30 mg/kg, 1 h.
The mark [3] stands for this setting: 3 h after administration, read-out: % inhibition at 30 mg/kg, 3 h.
Where [4] appears, read: 6 h after administration, read-out: % inhibition at 30 mg/kg, 6 h.

On to `CC(C)c1nc2c(c(-c3ccc(F)cc3)c1[C@@H](O)c1ccc(C(F)(F)F)cc1)[C@@H](O)CC1(CCC1)C2` [Example 51, (5S)-2-Isopropyl-4-(4-fluorophenyl)-3-[(S)-hydroxy-(4-trifluoromethylphenyl)-methyl]-7-spirocyclobutyl-5,6,7,8-tetrahydroquinolin-5-ol], for which the inhibition at 30 mg/kg was found to be 72% in assay [1] (setting [2]), 64% in assay [1] (setting [3]) and 60% in assay [1] (setting [4]). For the same compound, the “% HDL increase after 4 d (Dose: 4 × 10 mg/kg)” value in the assay on transgenic hCETP mice was determined as 57%. Further, the “% HDL increase after 24 h (Dose: 2 × 10 mg/kg)” value with Syrian golden hamsters is listed as 17%.
With `CC(C)c1nc2c(c(-c3ccccc3)c1[C@@H](O)c1ccc(C(F)(F)F)cc1)[C@@H](O)CC1(CCC1)C2` [Example 53, (5S)-2-Isopropyl-4-phenyl-3-[(S)-hydroxy-(4-trifluoromethylphenyl)-methyl]-7-spirocyclobutyl-5,6,7,8-tetrahydroquinolin-5-ol], the inhibition at 30 mg/kg in assay [1] (setting [2]) turned out to be 69%; in assay [1] (setting [3]) it was 51%; in assay [1] (setting [4]) it was 44%. Further, the “% HDL increase after 24 h (Dose: 2 × 10 mg/kg)” value in the assay on Syrian golden hamsters is on record as 19%.
As to `CC(C)c1nc2c(c(-c3cccs3)c1[C@@H](O)c1ccc(C(F)(F)F)cc1)[C@@H](O)CC1(CCC1)C2` [Example 61, (5S)-2-Isopropyl-4-(2-thienyl)-3-[(S)-hydroxy-(4-trifluoromethylphenyl)-methyl]-7-spirocyclobutyl-5,6,7,8-tetrahydroquinolin-5-ol], the results for the inhibition at 30 mg/kg in assay [1] (setting [2]), in assay [1] (setting [3]) and in assay [1] (setting [4]) were 71%, 49% and 35%, respectively.
